Measurements published in ChEMBL document CHEMBL5352405, “Discovery of azaspirocyclic 1H-3,4,5-Trisubstitued pyrazoles as novel G2019S-LRRK2 selective kinase inhibitors” (Eur J Med Chem, 2022).

What was measured:
in vitro [1] = conditions: mouse, liver microsomes
in vitro [2] = conditions: human, Caco-2

SMILES: Cc1[nH]nc(-c2ccncc2)c1-c1ccc(-c2cccc(S(N)(=O)=O)c2)c(C2CC2)c1
- half-life (in vitro [1]): 30 min
- Papp A→B (in vitro [2]): 8.8 ×10⁻⁶ cm/s
